Reference: ChEMBL document CHEMBL1649335, “Discovery of {1-[4-(2-{hexahydropyrrolo[3,4-c]pyrrol-2(1H)-yl}-1H-benzimidazol-1-yl)piperidin-1-yl]cyclooctyl}methanol, systemically potent novel non-peptide agonist of nociceptin/orphanin FQ receptor as analgesic for the treatment of neuropathic pain: design, synthesis, and structure-activity …” (Bioorg Med Chem, 2010)

Tests used:
[1] = Drug level Sprague-Dawley rat brain at 10 mg/kg, sc after 0.5 hrs; type: ADME, organism-based; design: dose 10 mg/kg, route subcutaneous; conditions: read-out: Drug uptake
[2] = Drug level Sprague-Dawley rat plasma at 10 mg/kg, sc after […]; type: ADME, organism-based; design: dose 10 mg/kg, route subcutaneous; conditions: read-out: Drug uptake
[3] = Drug level Sprague-Dawley rat plasma at 10 mg/kg, sc after 0.5 hrs; type: ADME, organism-based; design: dose 10 mg/kg, route subcutaneous; conditions: read-out: Drug uptake
[4] = tested on: Rattus norvegicus; assay: Antiallodynic activity against von Frey hair mechanically stimulated neuropathic pain in sc dosed Sprague-Dawley rat assessed as increase of response threshold after 30 mins; type: functional; conditions: 0.5 h
[5] = tested on: Rattus norvegicus; assay: Antiallodynic activity against von Frey hair mechanically stimulated neuropathic pain in sc dosed Sprague-Dawley rat assessed as increase of response threshold; type: functional, organism-based
[6] = tested on: Rattus norvegicus; assay: Antiallodynic activity against von Frey hair mechanically stimulated neuropathic pain in Sprague-Dawley rat assessed as increase of response threshold at 30 mg/kg, sc after 1 hr relative to control; type: functional; conditions: route subcutaneous
[7] = target: Adenosine receptor A1 (Homo sapiens) (UniProt P30542); assay: Inhibition of human adenosine A1 receptor at 1 uM relative to control
Sequence of Adenosine receptor A1 (Homo sapiens) (P30542 whole entry): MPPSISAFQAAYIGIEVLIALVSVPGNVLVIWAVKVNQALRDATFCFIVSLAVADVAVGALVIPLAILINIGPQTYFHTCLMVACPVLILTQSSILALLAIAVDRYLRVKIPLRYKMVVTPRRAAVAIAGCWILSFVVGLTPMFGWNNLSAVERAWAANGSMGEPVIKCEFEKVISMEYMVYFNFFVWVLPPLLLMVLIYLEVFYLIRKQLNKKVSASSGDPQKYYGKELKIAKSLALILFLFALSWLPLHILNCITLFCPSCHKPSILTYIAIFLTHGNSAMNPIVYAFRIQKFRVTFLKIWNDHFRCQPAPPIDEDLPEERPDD

[8] = tested on: Rattus norvegicus; assay: Antiallodynic activity against von Frey hair mechanically stimulated neuropathic pain in Sprague-Dawley rat assessed as increase of response threshold per site at 55 nmol/site administered intrathecally after 1 hr relative to control; type: functional
[9] = tested on: Rattus norvegicus; assay: Toxicity in von Frey hair mechanically stimulated neuropathic pain Sprague-Dawley rat model assessed as respiratory depression at up to 170 nmol/site, administered intrathecally; type: organism-based; conditions: in vivo, icv_or_intrathecal
[10] = tested on: Rattus norvegicus; assay: Toxicity in von Frey hair mechanically stimulated neuropathic pain Sprague-Dawley rat model assessed as sedation effect at up to 170 nmol/site, administered intrathecally; type: organism-based; conditions: in vivo, icv_or_intrathecal
[11] = target: Adenosine receptor A2a (Homo sapiens) (UniProt P29274); assay: Inhibition of human adenosine A2A receptor at 1 uM relative to control
Sequence of Adenosine receptor A2a (Homo sapiens) (P29274 whole entry): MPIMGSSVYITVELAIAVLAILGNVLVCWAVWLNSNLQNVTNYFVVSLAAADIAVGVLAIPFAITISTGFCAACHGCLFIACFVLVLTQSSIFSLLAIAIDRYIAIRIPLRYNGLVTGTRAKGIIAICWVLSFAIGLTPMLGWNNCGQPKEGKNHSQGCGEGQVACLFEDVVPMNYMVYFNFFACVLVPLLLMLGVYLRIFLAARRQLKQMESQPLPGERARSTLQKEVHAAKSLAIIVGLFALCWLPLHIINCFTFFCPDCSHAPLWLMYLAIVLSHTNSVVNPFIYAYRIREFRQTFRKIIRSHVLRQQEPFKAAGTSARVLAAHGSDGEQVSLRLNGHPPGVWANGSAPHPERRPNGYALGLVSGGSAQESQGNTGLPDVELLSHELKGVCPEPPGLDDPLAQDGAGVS

[12] = organism: Rattus norvegicus; assay: Inhibition of rat central benzodiazepine receptor at 1 uM relative to control
[13] = target: D(4) dopamine receptor (Homo sapiens) (UniProt P21917); assay: Inhibition of human dopamine D4.4 receptor at 1 uM relative to control
Sequence of D(4) dopamine receptor (Homo sapiens) (P21917 whole entry): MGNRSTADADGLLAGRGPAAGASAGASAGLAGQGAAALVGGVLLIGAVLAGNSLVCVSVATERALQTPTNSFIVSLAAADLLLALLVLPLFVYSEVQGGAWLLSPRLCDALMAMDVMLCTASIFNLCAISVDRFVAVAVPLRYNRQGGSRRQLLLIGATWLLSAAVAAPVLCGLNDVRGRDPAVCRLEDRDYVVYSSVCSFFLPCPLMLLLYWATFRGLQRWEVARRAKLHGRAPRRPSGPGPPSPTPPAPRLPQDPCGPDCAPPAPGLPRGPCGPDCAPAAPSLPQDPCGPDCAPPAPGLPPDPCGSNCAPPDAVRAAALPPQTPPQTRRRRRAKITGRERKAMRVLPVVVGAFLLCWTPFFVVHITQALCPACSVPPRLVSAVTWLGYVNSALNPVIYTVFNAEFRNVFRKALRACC

[14] = target: Sodium-dependent dopamine transporter (Homo sapiens) (UniProt Q01959); assay: Inhibition of human dopamine transporter at 1 uM relative to control
Sequence of Sodium-dependent dopamine transporter (Homo sapiens) (Q01959 whole entry): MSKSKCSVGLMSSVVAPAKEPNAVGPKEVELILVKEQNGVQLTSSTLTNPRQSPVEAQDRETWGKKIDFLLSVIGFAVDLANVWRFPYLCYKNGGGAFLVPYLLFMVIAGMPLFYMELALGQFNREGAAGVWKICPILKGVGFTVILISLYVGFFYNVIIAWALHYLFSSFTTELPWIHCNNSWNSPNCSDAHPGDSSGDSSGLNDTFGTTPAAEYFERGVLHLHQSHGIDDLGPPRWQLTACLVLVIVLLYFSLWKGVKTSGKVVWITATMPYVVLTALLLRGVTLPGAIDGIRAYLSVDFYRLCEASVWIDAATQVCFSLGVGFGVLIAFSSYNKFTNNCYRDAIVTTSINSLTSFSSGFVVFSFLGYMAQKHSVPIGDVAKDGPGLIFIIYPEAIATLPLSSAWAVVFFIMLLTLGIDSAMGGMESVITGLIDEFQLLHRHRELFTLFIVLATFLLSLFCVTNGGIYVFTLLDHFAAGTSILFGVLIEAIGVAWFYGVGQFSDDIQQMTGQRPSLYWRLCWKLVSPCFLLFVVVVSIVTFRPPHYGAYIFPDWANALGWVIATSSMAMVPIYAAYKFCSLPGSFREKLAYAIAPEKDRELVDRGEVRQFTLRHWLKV

[15] = organism: Rattus norvegicus; assay: Inhibition of rat kainate receptor at 1 uM relative to control
[16] = target: Histamine H3 receptor (Rattus norvegicus) (UniProt Q9QYN8); assay: Inhibition of rat histamine H3 receptor at 1 uM relative to control
Sequence of Histamine H3 receptor (Rattus norvegicus) (Q9QYN8 whole entry): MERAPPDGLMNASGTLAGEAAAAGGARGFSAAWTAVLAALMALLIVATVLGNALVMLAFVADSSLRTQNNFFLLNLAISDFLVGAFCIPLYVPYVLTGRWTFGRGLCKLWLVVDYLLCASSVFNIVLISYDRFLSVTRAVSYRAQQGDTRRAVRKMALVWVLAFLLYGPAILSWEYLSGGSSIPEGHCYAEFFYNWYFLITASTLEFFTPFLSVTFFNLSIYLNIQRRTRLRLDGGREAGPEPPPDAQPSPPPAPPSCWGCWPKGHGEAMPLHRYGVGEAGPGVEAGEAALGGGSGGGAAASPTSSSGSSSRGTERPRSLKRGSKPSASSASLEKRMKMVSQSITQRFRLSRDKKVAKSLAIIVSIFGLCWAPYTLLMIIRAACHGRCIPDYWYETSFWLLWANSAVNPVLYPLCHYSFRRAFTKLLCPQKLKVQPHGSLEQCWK

[17] = target: Muscarinic acetylcholine receptor (Rattus norvegicus) (UniProt P08482+P08483+P08485+P08911+P10980); assay: Inhibition of rat muscarinic M receptor at 1 uM relative to control
[18] = target: Muscarinic acetylcholine receptor M1 (Homo sapiens) (UniProt P11229); assay: Inhibition of human muscarinic M1 receptor at 1 uM relative to control
Sequence of Muscarinic acetylcholine receptor M1 (Homo sapiens) (P11229 whole entry): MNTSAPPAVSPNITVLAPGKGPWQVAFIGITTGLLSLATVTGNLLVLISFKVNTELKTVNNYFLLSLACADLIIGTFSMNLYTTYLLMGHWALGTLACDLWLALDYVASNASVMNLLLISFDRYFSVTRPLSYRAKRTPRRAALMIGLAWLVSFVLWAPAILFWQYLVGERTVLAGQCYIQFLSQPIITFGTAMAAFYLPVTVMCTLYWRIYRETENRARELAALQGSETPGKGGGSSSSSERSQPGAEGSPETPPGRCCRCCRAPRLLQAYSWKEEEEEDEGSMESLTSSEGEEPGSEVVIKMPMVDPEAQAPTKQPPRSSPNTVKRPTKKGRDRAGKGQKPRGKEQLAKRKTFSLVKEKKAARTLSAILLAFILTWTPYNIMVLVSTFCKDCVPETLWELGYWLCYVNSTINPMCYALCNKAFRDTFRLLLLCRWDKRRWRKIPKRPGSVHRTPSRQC

[19] = target: Muscarinic acetylcholine receptor M2 (Homo sapiens) (UniProt P08172); assay: Inhibition of human muscarinic M2 receptor at 1 uM relative to control
Sequence of Muscarinic acetylcholine receptor M2 (Homo sapiens) (P08172 whole entry): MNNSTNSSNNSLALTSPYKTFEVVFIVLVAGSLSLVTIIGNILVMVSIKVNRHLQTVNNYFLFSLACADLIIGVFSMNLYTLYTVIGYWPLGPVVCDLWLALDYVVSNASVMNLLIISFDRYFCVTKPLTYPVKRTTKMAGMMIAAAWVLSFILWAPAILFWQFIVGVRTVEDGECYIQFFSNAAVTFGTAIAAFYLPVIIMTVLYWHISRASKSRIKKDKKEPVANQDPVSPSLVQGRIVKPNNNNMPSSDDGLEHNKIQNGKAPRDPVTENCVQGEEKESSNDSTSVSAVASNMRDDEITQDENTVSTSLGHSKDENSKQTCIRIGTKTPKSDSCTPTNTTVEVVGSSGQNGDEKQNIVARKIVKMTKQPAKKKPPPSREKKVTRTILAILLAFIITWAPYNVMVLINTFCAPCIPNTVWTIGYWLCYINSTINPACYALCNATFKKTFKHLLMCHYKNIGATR

[20] = target: Sodium-dependent serotonin transporter (Homo sapiens) (UniProt P31645); assay: Inhibition of human 5-HT transporter at 1 uM relative to control
[21] = organism: Rattus norvegicus; assay: Inhibition of rat phospholipase C at 1 uM relative to control
[22] = target: monoamine oxidase B (Homo sapiens, UniProt P27338); assay: Inhibition of human monoamine oxidase B at 1 uM relative to control
Sequence of monoamine oxidase B (P27338 whole entry): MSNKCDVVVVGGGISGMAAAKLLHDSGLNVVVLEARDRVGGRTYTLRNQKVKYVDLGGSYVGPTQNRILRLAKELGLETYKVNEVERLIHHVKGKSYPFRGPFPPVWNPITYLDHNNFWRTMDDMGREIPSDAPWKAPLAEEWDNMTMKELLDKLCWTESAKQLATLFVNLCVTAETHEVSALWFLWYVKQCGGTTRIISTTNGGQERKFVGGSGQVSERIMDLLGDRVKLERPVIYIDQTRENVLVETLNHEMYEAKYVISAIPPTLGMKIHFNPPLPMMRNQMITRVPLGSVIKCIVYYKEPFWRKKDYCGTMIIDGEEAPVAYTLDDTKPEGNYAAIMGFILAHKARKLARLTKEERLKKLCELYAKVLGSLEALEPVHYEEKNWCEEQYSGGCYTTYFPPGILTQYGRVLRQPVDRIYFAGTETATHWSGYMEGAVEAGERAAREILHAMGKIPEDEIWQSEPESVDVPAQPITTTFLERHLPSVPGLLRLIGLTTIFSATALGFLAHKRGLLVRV

[23] = target: Tyrosine 3-monooxygenase (Rattus norvegicus) (UniProt P04177); assay: Inhibition of rat tyrosine hydroxylase at 1 uM relative to control
Sequence of Tyrosine 3-monooxygenase (Rattus norvegicus) (P04177 whole entry): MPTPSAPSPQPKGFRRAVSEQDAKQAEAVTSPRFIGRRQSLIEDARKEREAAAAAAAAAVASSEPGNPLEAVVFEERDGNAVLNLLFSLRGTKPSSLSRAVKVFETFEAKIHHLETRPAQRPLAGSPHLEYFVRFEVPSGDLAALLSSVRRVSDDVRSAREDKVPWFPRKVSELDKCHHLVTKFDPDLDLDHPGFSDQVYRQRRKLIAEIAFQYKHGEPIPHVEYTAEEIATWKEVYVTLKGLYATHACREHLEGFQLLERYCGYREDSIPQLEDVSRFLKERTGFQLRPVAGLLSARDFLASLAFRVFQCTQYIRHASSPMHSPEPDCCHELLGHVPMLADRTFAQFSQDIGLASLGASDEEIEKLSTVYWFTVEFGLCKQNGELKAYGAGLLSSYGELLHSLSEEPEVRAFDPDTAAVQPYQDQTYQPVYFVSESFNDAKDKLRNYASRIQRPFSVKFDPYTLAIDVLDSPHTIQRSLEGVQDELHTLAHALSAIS

[24] = target: Mu-type opioid receptor (Homo sapiens, UniProt P35372)
Sequence of Mu-type opioid receptor (P35372 whole entry): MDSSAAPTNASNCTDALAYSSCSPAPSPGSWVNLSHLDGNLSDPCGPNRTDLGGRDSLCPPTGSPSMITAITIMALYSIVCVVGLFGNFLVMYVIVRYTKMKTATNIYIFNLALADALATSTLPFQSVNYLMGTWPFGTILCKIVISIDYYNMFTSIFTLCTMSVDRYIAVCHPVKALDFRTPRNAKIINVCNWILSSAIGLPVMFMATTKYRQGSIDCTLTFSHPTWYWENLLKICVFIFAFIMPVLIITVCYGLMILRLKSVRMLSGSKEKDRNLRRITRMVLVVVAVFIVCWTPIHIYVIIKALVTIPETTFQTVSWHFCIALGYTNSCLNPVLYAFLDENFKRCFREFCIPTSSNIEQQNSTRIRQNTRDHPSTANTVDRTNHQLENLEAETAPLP

[25] = target: T1, Nociceptin receptor (Homo sapiens, UniProt P41146)
T1 sequence (P41146 whole entry): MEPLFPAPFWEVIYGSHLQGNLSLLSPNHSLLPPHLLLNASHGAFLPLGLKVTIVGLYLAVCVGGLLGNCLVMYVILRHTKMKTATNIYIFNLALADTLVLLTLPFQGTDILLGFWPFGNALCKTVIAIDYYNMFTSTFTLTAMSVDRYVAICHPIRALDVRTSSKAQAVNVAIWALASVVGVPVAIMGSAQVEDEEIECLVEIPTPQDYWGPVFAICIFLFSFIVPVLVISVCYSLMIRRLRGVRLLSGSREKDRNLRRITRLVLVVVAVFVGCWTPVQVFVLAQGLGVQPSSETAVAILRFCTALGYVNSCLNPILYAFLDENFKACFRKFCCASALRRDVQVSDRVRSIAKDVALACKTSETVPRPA

[26] = target: T1, Nociceptin receptor; assay: biochemical

OCC1(N2CCC(n3c(N4CC5CNCC5C4)nc4ccccc43)CC2)CCCCCCC1 (stereo unspecified)
concentration at 0.5 h [1]: 152 ng/mL
concentration at […] [2]: 504 ng/mL
concentration at 0.5 h [3]: 600 ng/mL
ED50 [4]: 26.8 mg/kg
Activity [5]: Dose-dependent effect
Activity [6]: 79.3%
inhibition [7]: < 10%
Activity [8]: 31.1%
Activity [9]: Non-toxic
Activity [10]: Non-toxic
inhibition [11]: < 10%
inhibition [12]: < 10%
inhibition [13]: < 10%
inhibition [14]: < 10%
inhibition [15]: 32%
inhibition [16]: < 10%
inhibition [17]: 38%
inhibition [18]: 15%
inhibition [19]: 19%
inhibition [20]: < 10%
inhibition [21]: < 10%
inhibition at 1 µM [22]: < 10%
inhibition [23]: < 10%
EC50 [24]: 3500 nM
EC50 [25]: 12 nM
Ki [26]: 1.44 nM
